Article PMC3624796 (Journal of Medicinal Chemistry, 2013)

Key:
[1] = molecular target: T1, T4 lysozyme L99A/M102H† (Enterobacteria phage T4, UniProt P00720, C54T/C97A/E108V/L99A/M102H/N144D/S117V/S38D/T142C/T21C); type: binding; conditions: crystal structure
[2] = molecular target: T1, T4 lysozyme L99A/M102H†; type: binding
[3] = molecular target: T1, T4 lysozyme L99A/M102H†; type: binding; remark: listed apart in the source
[4] = test system: T4 lysozyme L99A; conditions: cited from earlier work

| SMILES | hydrogen bond distance between ligand and His102 [1] [Å] | further results |
| --- | --- | --- |
| C#CC(O)c1ccccc1 (stereo not drawn) [1-phenyl-2-propyn-1-ol, 1-phenyl-2-propyn-1-ol] | 2.77 |  |
| C=CCc1ccccc1O [2-allyl phenol] | 3.00 |  |
| Nc1ncc(Cl)s1 [2-amino-5-chloro thiazole] | 2.89 |  |
| O=Cc1cc(O)ccc1Br [2-bromo-5-hydroxybenzaldehyde] | 2.50 |  |
| Cc1cc(C(F)(F)F)n[nH]1 [3-methyl-5-(trifluoromethyl) pyrazole] | 2.90 |  |
| Brc1c[nH]cn1 [4-bromoimidazole] | 2.93 |  |
| O=[N+]([O-])c1ccc(O)cc1 [4-nitrophenol] |  | interaction with His102 stronger than with Gln102 (double perturbation analysis) [2]: 2.4 kcal/mol; ΔGmelt (change of stability on ligand binding, ΔTm × ΔS) [3]: 1.4 kcal/mol |
| FC(F)(F)c1c[nH]cn1 [4-trifluoromethyl imidazole] | 2.85 |  |
| N#Cc1cc(Br)ccc1O [5-bromo-2-hydroxybenzonitrile] |  | ΔGmelt (change of stability on ligand binding, ΔTm × ΔS) [3]: 0.6 kcal/mol |
| Oc1ccccc1 [phenol] |  | binding to L99A cavity [4]: does not measurably bind |
| C=CSc1ccccc1 [phenyl vinyl sulfide] |  | ΔGmelt (change of stability on ligand binding, ΔTm × ΔS) [3]: 0.25 kcal/mol |
